Key:
[1] = biological target: Beta-1 adrenergic receptor (Homo sapiens, UniProt P08588); format: functional
[2] = biological target: Beta-2 adrenergic receptor (Homo sapiens, UniProt P07550)
[3] = biological target: Voltage-dependent L-type calcium channel subunit alpha-1C (Rattus norvegicus, UniProt P22002); format: functional
[4] = biological target: T1, 5-hydroxytryptamine receptor 1A (Homo sapiens, UniProt P08908); format: functional, cell-based
T1 sequence (P08908 whole entry): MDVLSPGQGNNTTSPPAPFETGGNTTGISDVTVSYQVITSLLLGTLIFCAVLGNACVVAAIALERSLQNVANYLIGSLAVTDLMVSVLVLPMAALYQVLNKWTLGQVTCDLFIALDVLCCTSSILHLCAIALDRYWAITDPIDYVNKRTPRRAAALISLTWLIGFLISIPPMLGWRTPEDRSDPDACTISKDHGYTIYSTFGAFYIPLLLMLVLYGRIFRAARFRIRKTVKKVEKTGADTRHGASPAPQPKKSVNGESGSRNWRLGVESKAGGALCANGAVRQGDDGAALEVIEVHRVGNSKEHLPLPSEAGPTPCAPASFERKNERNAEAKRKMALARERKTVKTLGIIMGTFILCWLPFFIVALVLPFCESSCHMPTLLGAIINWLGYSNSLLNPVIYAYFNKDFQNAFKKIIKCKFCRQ

[5] = biological target: Kappa-type opioid receptor (Homo sapiens, UniProt P41145)
Sequence of Kappa-type opioid receptor (P41145 whole entry): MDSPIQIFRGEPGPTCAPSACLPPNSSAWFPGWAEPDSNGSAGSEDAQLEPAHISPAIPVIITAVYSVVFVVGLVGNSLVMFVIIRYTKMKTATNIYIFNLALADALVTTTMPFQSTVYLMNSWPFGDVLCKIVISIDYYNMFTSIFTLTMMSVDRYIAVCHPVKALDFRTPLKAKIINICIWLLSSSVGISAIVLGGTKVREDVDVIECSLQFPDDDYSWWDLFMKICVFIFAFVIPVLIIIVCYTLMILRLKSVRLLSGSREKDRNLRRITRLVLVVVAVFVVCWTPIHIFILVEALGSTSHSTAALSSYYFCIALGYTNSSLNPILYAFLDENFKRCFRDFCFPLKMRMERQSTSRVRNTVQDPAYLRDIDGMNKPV

Mu-type opioid receptor [6] = biological target: T2, Mu-type opioid receptor (Homo sapiens, UniProt P35372); experiment: biochemical; format: functional
T2 sequence (P35372 whole entry): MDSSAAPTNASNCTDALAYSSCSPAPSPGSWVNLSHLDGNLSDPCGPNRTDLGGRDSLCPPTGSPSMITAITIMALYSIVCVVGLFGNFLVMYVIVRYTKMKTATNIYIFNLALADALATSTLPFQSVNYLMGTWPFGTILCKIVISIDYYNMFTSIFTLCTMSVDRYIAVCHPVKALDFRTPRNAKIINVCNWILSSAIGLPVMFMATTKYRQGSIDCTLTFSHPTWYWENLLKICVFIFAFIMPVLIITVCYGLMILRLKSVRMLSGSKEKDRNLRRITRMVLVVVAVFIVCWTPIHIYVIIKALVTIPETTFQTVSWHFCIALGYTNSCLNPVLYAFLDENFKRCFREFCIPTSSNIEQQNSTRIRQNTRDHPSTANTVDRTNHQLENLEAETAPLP

Progesterone receptor = biological target: T3, Progesterone receptor (Homo sapiens, UniProt P06401); format: functional
T3 sequence (P06401 whole entry): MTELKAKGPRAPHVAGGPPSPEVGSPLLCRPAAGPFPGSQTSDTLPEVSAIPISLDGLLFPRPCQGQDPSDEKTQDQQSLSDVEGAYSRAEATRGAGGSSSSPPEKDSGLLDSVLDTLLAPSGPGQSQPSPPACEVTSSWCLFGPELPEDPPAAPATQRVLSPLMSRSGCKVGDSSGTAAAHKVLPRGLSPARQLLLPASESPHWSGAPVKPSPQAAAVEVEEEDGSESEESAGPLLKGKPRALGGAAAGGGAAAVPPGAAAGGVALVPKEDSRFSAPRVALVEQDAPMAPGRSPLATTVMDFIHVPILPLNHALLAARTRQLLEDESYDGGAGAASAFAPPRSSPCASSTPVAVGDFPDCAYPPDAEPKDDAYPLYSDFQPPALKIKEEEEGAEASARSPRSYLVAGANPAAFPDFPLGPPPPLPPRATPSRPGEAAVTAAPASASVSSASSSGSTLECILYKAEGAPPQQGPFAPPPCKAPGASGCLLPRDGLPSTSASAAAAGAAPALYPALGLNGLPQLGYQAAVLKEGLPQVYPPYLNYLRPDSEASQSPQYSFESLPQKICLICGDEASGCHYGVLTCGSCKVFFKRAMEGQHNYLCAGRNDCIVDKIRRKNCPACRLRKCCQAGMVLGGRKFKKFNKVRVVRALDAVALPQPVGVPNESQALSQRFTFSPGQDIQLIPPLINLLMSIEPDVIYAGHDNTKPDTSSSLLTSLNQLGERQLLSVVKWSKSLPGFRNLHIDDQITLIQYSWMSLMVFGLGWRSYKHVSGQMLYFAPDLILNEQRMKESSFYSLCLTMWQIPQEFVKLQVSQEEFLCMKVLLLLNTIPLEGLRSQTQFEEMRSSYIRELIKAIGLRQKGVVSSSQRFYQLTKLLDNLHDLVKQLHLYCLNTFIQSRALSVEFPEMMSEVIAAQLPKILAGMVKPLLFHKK

[7] = biological target: T4, Alpha-2A adrenergic receptor (Homo sapiens, UniProt P08913)
T4 sequence (P08913 whole entry): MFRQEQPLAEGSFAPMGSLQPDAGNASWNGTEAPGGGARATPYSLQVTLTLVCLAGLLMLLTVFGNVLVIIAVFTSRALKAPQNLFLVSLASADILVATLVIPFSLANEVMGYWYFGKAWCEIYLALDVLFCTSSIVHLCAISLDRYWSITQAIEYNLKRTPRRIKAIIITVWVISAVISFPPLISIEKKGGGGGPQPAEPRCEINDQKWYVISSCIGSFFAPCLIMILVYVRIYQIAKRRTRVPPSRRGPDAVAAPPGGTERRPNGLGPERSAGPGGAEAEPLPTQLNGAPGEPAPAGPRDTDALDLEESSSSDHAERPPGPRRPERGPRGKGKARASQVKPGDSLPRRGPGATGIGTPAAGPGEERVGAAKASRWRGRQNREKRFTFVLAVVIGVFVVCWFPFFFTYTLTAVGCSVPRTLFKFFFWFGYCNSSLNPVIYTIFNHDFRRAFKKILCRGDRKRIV

Mu-type opioid receptor [8] = biological target: T2, Mu-type opioid receptor
[9] = biological target: Prostaglandin G/H synthase 1 (Homo sapiens, UniProt P23219); format: functional
Sequence of Prostaglandin G/H synthase 1 (P23219 whole entry): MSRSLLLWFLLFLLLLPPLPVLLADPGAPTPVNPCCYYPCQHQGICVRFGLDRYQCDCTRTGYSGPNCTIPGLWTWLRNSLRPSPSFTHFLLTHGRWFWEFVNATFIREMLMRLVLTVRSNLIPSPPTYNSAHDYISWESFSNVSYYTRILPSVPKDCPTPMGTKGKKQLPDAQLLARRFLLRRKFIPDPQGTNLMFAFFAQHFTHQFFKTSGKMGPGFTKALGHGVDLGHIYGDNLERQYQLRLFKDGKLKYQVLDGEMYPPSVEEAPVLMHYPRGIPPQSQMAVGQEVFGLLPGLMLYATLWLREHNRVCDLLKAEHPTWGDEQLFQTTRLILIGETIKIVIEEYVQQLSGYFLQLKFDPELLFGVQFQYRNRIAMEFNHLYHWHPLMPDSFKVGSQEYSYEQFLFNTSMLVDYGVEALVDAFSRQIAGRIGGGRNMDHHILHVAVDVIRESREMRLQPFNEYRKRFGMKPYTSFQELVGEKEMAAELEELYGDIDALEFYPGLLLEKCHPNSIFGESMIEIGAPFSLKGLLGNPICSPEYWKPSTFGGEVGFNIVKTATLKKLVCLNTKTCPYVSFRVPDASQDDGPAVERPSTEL

[10] = biological target: T5, Alpha-1A adrenergic receptor (Homo sapiens, UniProt P35348); format: functional, cell-based
T5 sequence (P35348 whole entry): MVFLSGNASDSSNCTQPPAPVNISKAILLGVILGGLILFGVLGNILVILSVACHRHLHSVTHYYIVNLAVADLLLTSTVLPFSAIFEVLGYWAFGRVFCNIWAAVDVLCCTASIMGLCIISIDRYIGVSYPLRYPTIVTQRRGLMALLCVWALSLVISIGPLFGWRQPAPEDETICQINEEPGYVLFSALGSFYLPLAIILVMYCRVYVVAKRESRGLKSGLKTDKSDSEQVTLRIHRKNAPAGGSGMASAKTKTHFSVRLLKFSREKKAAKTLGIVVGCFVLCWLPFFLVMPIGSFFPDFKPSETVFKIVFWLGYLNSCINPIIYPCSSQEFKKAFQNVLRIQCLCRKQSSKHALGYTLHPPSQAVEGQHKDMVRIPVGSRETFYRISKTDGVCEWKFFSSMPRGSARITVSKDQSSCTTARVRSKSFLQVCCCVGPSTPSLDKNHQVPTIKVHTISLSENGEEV

Cannabinoid receptor 1 = Cannabinoid receptor 1 (Homo sapiens, UniProt P21554); format: functional, cell-based
[11] = biological target: 5-hydroxytryptamine receptor 2A (Homo sapiens, UniProt P28223); format: functional, cell-based
Sequence of 5-hydroxytryptamine receptor 2A (P28223 whole entry): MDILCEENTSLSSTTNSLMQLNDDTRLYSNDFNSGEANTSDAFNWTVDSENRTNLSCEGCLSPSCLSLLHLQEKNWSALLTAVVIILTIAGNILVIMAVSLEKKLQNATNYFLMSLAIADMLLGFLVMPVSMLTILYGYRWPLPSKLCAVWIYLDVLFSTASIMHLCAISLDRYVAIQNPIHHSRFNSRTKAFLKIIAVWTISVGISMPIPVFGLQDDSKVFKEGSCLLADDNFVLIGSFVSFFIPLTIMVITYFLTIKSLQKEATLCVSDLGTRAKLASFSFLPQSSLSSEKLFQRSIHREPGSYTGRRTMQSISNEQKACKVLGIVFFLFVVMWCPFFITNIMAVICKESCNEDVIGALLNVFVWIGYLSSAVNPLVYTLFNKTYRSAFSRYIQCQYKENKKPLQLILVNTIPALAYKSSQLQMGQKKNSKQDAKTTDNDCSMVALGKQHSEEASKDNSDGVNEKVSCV
Note: assay procedure not described here.

Sequence of Voltage-dependent L-type calcium channel subunit alpha-1C (P22002 whole entry): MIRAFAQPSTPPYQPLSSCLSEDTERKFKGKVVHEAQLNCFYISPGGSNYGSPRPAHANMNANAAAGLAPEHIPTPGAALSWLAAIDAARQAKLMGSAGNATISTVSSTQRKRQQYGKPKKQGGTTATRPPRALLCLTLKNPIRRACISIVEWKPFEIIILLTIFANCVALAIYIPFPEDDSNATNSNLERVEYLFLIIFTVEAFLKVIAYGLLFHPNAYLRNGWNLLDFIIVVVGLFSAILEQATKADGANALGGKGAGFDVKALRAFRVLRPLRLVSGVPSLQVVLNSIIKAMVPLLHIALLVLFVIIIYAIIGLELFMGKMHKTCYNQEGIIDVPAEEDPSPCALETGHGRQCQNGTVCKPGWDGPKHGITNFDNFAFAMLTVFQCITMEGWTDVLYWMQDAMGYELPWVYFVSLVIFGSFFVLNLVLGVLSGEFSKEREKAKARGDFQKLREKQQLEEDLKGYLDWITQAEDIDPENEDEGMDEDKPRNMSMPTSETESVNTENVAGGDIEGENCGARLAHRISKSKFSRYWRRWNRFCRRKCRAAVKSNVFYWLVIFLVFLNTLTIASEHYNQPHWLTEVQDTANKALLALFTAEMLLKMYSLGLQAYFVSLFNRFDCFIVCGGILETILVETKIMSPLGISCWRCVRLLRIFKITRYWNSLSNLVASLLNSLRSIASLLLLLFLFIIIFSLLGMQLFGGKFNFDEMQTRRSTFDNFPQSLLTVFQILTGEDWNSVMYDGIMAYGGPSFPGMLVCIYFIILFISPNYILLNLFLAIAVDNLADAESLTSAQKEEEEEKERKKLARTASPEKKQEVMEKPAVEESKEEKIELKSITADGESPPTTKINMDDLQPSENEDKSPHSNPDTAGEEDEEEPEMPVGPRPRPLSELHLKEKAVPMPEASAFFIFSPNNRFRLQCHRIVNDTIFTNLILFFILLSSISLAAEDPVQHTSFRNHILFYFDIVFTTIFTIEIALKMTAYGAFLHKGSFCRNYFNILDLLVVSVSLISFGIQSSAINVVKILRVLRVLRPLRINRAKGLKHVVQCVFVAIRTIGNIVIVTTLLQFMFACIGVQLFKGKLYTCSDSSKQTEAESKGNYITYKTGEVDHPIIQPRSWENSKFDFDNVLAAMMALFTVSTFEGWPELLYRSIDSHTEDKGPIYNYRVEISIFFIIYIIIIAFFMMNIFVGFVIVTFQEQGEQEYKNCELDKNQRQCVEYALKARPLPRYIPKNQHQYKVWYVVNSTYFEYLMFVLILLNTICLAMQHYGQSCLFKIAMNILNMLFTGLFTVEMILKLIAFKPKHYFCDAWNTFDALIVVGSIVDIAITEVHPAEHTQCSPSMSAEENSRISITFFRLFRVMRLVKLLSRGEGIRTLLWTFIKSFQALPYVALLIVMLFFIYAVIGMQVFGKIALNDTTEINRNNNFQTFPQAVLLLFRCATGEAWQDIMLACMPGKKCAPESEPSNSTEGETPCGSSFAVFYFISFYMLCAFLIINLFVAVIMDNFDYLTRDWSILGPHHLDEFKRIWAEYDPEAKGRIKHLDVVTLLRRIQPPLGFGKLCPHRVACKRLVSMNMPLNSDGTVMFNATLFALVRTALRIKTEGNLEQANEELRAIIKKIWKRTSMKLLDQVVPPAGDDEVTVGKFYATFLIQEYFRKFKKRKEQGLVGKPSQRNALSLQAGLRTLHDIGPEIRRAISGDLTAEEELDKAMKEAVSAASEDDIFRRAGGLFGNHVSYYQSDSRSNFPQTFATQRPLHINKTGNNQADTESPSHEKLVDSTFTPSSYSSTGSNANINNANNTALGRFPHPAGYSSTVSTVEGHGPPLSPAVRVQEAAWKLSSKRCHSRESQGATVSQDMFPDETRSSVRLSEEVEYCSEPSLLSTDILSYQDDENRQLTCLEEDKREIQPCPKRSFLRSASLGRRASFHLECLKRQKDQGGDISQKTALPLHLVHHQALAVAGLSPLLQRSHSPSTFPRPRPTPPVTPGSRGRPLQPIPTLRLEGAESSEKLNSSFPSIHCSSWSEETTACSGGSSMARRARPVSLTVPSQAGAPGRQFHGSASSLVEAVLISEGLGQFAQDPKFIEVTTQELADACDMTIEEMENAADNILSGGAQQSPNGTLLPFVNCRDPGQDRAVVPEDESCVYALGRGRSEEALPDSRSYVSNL
Sequence of Beta-2 adrenergic receptor (P07550 whole entry): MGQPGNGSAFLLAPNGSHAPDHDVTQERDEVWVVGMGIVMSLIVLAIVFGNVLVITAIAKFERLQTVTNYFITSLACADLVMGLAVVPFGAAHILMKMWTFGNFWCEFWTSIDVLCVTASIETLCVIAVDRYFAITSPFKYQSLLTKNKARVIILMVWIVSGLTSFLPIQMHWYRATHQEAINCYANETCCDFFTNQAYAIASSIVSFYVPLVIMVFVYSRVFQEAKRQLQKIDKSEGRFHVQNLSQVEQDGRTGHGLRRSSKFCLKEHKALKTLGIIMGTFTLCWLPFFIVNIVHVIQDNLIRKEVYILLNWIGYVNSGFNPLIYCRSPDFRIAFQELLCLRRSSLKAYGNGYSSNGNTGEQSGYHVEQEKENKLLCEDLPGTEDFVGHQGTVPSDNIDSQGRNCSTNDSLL
Sequence of Beta-1 adrenergic receptor (P08588 whole entry): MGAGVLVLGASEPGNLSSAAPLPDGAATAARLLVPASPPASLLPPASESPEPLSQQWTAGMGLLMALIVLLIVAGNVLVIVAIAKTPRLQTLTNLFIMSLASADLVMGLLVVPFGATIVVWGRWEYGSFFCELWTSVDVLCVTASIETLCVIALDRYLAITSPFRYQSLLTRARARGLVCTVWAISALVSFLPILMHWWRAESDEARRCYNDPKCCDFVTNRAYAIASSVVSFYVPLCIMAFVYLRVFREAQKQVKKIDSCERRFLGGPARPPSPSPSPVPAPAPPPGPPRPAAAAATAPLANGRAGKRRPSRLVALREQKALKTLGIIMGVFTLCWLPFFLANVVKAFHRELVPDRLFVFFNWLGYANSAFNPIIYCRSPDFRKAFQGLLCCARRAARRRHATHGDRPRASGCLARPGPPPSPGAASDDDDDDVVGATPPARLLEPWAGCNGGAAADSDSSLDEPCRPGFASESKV

SMILES	AC50 [1] [µM]	AC50 [2] [µM]	AC50 [3] [µM]	AC50 [4] [µM]	AC50 [5] [µM]	AC50 (Mu-type opioid receptor [6]) [µM]	AC50 (Progesterone receptor) [µM]	AC50 [7] [µM]	AC50 (Mu-type opioid receptor [8]) [µM]	AC50 [9] [µM]	AC50 [10] [µM]	AC50 (Cannabinoid receptor 1) [µM]	AC50 [11] [µM]
O=C(O)c1cc(-c2ccc(F)cc2F)ccc1O [DIFLUNISAL]	> 10	> 10	> 10	> 10	> 10	> 30	> 10						
CCc1ccc(CCOc2ccc(CC3SC(=O)NC3=O)cc2)nc1 (configuration not stated) [PIOGLITAZONE]	> 10	> 10	> 10	> 10	> 10	> 30		> 30	> 30	> 30			
CC(C)C(=O)Nc1ccc([N+](=O)[O-])c(C(F)(F)F)c1 [FLUTAMIDE]	> 10	> 10	> 10	> 10	> 10	> 30	> 10	> 30	> 30	> 30	> 30		
NC[C@H]1CC[C@H](C(=O)O)CC1 [TRANEXAMIC ACID]	> 10	> 10	> 10	> 10	> 10	> 30	> 10						
C[C@H]1C[C@@H]2[C@H]([C@@H](O)C[C@@]3(C)[C@H]2CC[C@]3(O)C(=O)CO)[C@@]2(C)C=CC(=O)C=C12 [METHYLPREDNISOLONE]	> 10	> 10	> 10	> 10	> 10	> 30	1.3						
CNC(=O)c1cc(Oc2ccc(NC(=O)Nc3ccc(Cl)c(C(F)(F)F)c3)cc2)ccn1 [SORAFENIB]	28	> 30	> 30		23	> 30	> 30				> 30	> 30	
NC(=O)c1cnccn1 [PYRAZINAMIDE]	> 30	> 30	> 30	> 10	> 30	> 30	> 30	> 30	> 30	> 30	> 30	> 30	
CS(=O)(=O)c1ccc([C@@H](O)[C@@H](CO)NC(=O)C(Cl)Cl)cc1 [THIAMPHENICOL]	> 30	> 30	> 30	> 30	> 30	> 30	> 30	> 30	> 30	> 30	> 30	> 30	
Cc1cccc(C)c1OCC(C)N (configuration not stated) [MEXILETINE]	> 30					> 30	> 30				> 30	> 30	
NC1=NC(=O)C(c2ccccc2)O1 (configuration not stated) [PEMOLINE]	> 10	> 10	> 10	> 10	> 10	> 30							
NC[C@H]1O[C@H](O[C@H]2[C@H](O)[C@@H](O[C@H]3O[C@H](CO)[C@@H](O)[C@H](N)[C@H]3O)[C@H](N)C[C@@H]2N)[C@H](O)[C@@H](O)[C@@H]1O [KANAMYCIN]		> 10	> 10	> 10	> 30	> 30	> 10				> 30		
COC(=O)C1=C(C)NC(C)=C(C(=O)OCC(C)C)C1c1ccccc1[N+](=O)[O-] (configuration not stated) [NISOLDIPINE]	> 10	> 10	4.62	> 10	> 10	> 30	> 30				> 30	> 30	
CC(C)NCC(O)COc1ccc(COCCOC(C)C)cc1 (configuration not stated) [BISOPROLOL]			> 10	> 10	> 10	> 30							> 30
COC(=O)N[C@H](C(=O)N1CCC[C@H]1c1nc(-c2ccc(-c3ccc(-c4c[nH]c([C@@H]5CCCN5C(=O)[C@@H](NC(=O)OC)C(C)C)n4)cc3)cc2)c[nH]1)C(C)C	> 30	> 30	> 30		4.1	> 30	> 30				> 30		> 30
Nc1nc(N)c2nc(-c3ccccc3)c(N)nc2n1	> 30	> 30	> 30	> 10	> 30	> 30	> 30	> 30	29.1	> 30	> 30	> 30	
COc1ccc2c(c1)C(=O)N(CCc1ccc(S(=O)(=O)NC(=O)NC3CCCCC3)cc1)C(=O)C2(C)C [GLIQUIDONE]	> 30	> 30	> 30		> 30	> 30	> 30				> 30		13
C[C@H]1O[C@H](O[C@H]2[C@H](O)[C@@H](O)[C@@H](O[C@H]3[C@H](O)[C@@H](O)C(O)O[C@@H]3CO)O[C@@H]2CO)[C@H](O)[C@@H](O)[C@@H]1N[C@H]1C=C(CO)[C@@H](O)[C@H](O)[C@H]1O (some centres not stated) [ACARBOSE]	> 30	> 30	> 10	> 10	> 10	> 30	> 30	> 30	> 30	> 30	> 30	> 30	
N[C@@H](C(=O)N[C@@H]1C(=O)N2C(C(=O)O)=C(Cl)CS[C@H]12)c1ccccc1 [CEFACLOR ANHYDROUS]	> 30				> 30	> 30	> 30				> 30	> 30	> 30

From ChEMBL document CHEMBL5291721, “A preclinical secondary pharmacology resource illuminates target-adverse drug reaction associations of marketed drugs” (Nat Commun, 2023)
